Data taken from US20170290774A1, “NEUROKININ-1 RECEPTOR ANTAGONIST COMPOSITION FOR TREATMENT OF DISEASES AND CONDITIONS OF THE RESPIRATORY TRACT” (PLUS VITECH, S.L., priority 2014, published 2017).

Test system: Fibrosis
Assay: Area occupied by fibrosis in hematoxylin/eosin sections of sodium hypochlorite aerosol-treated rabbits
Type: in vivo, New Zealand albino rabbits
Source text: It is known that the factors TGF-α, TGF-β 1, TGF-β 2, TGF-β 3, SPARC, MMP-3; MMP-7, MMP-9, MMP-11, MMP-13 and MMP-14, TGF-β, NF-kB, EGF, MMP-9, VEGF and TNF-α which are produced by lung cells (pneumocytes, fibroblasts and vascular endothelial cells) and inflammatory cells (macrophages, lymphocytes and polymorphonuclear leukocytes) are involved in the pathophysiology and development of said respiratory tract diseases. […] Herein, 27 New Zealand albino rabbits (New Zealand White Rabbit) with an initial average weight about 3 kg were used in this example. All subjects were administered an aerosol of a solution consisting of a mixture of water and sodium hypochlorite (35 g sodium hypochlorite per liter of water) at a rate of 5 mL of said solution by inhalation three times a day for 7 days (days 1 to 7 of experimentation). Subsequently, from days 3 to 7, a group of 3 rabbits (Group 1) was administered an oral dose of 10 mg/kg body weight per day, another group of 3 rabbits (Group 2) was administered an oral dose of 40 mg/kg body weight per day, a third group (Group 3) was administered an oral dose of 80 mg/kg body weight per day and a fourth group (Group 4) was administered an oral dose of 100 mg/kg body weight per day. […] This mixture was administered as an aerosol by inhalation, also from days 3 to 7, to a group of 3 rabbits (group 5) at a dose of 0.05 mg/kg body weight per day, to another group of three rabbits (Group 6) at a dose of 0.1 mg/kg body weight per day, to another group of three rabbits (Group 7) at a dose of 0.2 mg/kg body weight per day and to another group of three rabbits (Group 8) at a dose of 0.4 mg/kg body weight per day. A placebo consisting only of olive oil was administered from days 3 to 7 to a control group of 3 rabbits (placebo group). In parallel, 3 rabbits were kept under identical conditions but were not administered any treatment nor the aforementioned sodium hypochlorite solution (control group). […] On day 7 of the experiment all animals were euthanized and necropsied. […] Samples were taken at the peripheral level of the lung parenchyma, just below the pleural surface. Tissue samples were also taken from the nasal cavity, pharynx, larynx and bronchi. Immunohistochemistry studies were performed for all samples to evaluate the levels of the markers TGF-α, TGF-β 1, TGF-β 2, TGF-β 3 SPARC, MMP-3; MMP-7, MMP-9, MMP-11, MMP-14, TGF-β, TNF-α and VEGF. The samples were then allowed to cool to room temperature over 10 minutes. Endogenous peroxidase activity was blocked by treatment with 3% hydrogen peroxide over 30 min at room temperature. […] In order to verify the expression of NK1 receptors, the cell samples were incubated in the presence of anti-NK1 antibodies ([…], Sigma-Aldrich) diluted 1:1000 at 4° C. overnight. After this time they were washed in 0.05M Tris buffer at room temperature. Subsequently, Envision System-HRP (Dako) reagents were added for 30 min at room temperature. Once this time had expired, the samples were again washed with 0.05 M Tris buffer, and immunoreactivity was visualized by light microscopy with a chromogenic solution with 3,3'-diaminobenzidine (DAB+; Dako, USA). In order to differentiate the cell nuclei, these were lightly stained with haematoxylin. Samples that were not incubated with the primary antibody, but wherein this was replaced by a non-immune serum were used as negative controls. In order to evaluate markers in these immunohistochemical assays, specific primary antibodies were used against them at a concentration 1:1000, as detailed in Table 12. Furthermore, for each of the sampled sections were placed on slides and stained with haematoxylin-eosin before subsequently being deparaffinised by immersion in xylene and then rehydrated through immersion in a series of solutions containing decreasing concentrations of ethanol and, finally, immersing them in water, eosin (20 seconds) and hematoxylin (40 seconds). All experiments were performed in sextuplicate. […]

## C[C@@H](OC1OCCN(Cc2nc(=O)[nH][nH]2)C1c1ccc(F)cc1)c1cc(C(F)(F)F)cc(C(F)(F)F)c1 (stereo in doubt) [Aprepitant, 5-([(2R,3S)-2-((R)-1-[3,5-bis(trifluoromethyl)phenyl]ethoxy)-3-(4-fluorophenyl)morpholino]methyl)-1H-1,2,4-triazol-3(2H)-one]
Bronchial tissue, Group 1, oral 10 mg/kg per day
  Percent increase in Fibrosis with respect to the control group: 2,500.10%
Bronchial tissue, Group 2, oral 40 mg/kg per day
  Percent increase in Fibrosis with respect to the control group: 2,000.00%
Bronchial tissue, Group 3, oral 80 mg/kg per day
  Percent increase in Fibrosis with respect to the control group: 1,500.00%
Bronchial tissue, Group 4, oral 100 mg/kg per day
  Percent increase in Fibrosis with respect to the control group: 1,000.00%
Bronchial tissue, Group 5
  % Med G5/C: percent increase in Fibrosis with respect to the control group: 2,000.00%
Bronchial tissue, Group 6
  % Med G6/C: percent increase in Fibrosis with respect to the control group: 1,000.00%
Bronchial tissue, Group 7
  % Med G7/C: percent increase in Fibrosis with respect to the control group: 500.00%
Bronchial tissue, Group 8
  % Med G8/C: percent increase in Fibrosis with respect to the control group: 100.50%
Laryngeal tissue, Group 1, oral 10 mg/kg per day
  Percent increase in Fibrosis with respect to the control group: 250.50%
Laryngeal tissue, Group 2, oral 40 mg/kg per day
  Percent increase in Fibrosis with respect to the control group: 225.70%
Laryngeal tissue, Group 3, oral 80 mg/kg per day
  Percent increase in Fibrosis with respect to the control group: 200.57%
Laryngeal tissue, Group 4, oral 100 mg/kg per day
  Percent increase in Fibrosis with respect to the control group: 150.70%
Laryngeal tissue, Group 5, inhalation 0.05 mg/kg per day
  Percent increase in Fibrosis with respect to the control group: 375.50%
Laryngeal tissue, Group 6, inhalation 0.1 mg/kg per day
  Percent increase in Fibrosis with respect to the control group: 275.45%
Laryngeal tissue, Group 7, inhalation 0.2 mg/kg per day
  Percent increase in Fibrosis with respect to the control group: 200.60%
Laryngeal tissue, Group 8, inhalation 0.4 mg/kg per day
  Percent increase in Fibrosis with respect to the control group: 125.40%
Lung tissue, Group 1, oral 10 mg/kg per day
  Percent increase in Fibrosis with respect to the control group: 1,272.22%
Lung tissue, Group 2, oral 40 mg/kg per day
  Percent increase in Fibrosis with respect to the control group: 683.33%
Lung tissue, Group 3, oral 80 mg/kg per day
  Percent increase in Fibrosis with respect to the control group: 611.11%
Lung tissue, Group 4, oral 100 mg/kg per day
  Percent increase in Fibrosis with respect to the control group: 516.67%
Lung tissue, Group 5, inhalation 0.05 mg/kg per day
  Percent increase in Fibrosis with respect to the control group: 1,127.78%
Lung tissue, Group 6, inhalation 0.1 mg/kg per day
  Percent increase in Fibrosis with respect to the control group: 433.33%
Lung tissue, Group 7, inhalation 0.2 mg/kg per day
  Percent increase in Fibrosis with respect to the control group: 233.33%
Lung tissue, Group 8, inhalation 0.4 mg/kg per day
  Percent increase in Fibrosis with respect to the control group: 161.11%
Nasal cavity tissue, Group 1, oral 10 mg/kg per day
  Percent increase in Fibrosis with respect to the control group: 513.89%
Nasal cavity tissue, Group 2, oral 40 mg/kg per day
  Percent increase in Fibrosis with respect to the control group: 375.00%
Nasal cavity tissue, Group 3, oral 80 mg/kg per day
  Percent increase in Fibrosis with respect to the control group: 300.00%
Nasal cavity tissue, Group 4, oral 100 mg/kg per day
  Percent increase in Fibrosis with respect to the control group: 300.00%
Nasal cavity tissue, Group 5, inhalation 0.05 mg/kg per day
  Percent increase in Fibrosis with respect to the control group: 700.00%
Nasal cavity tissue, Group 6, inhalation 0.1 mg/kg per day
  Percent increase in Fibrosis with respect to the control group: 319.44%
Nasal cavity tissue, Group 7, inhalation 0.2 mg/kg per day
  Percent increase in Fibrosis with respect to the control group: 163.89%
Nasal cavity tissue, Group 8, inhalation 0.4 mg/kg per day
  Percent increase in Fibrosis with respect to the control group: 147.22%
Pharyngeal tissue, Group 1, oral 10 mg/kg per day
  Percent increase in Fibrosis with respect to the control group: 489.54%
Pharyngeal tissue, Group 2, oral 40 mg/kg per day
  Percent increase in Fibrosis with respect to the control group: 457.45%
Pharyngeal tissue, Group 3, oral 80 mg/kg per day
  Percent increase in Fibrosis with respect to the control group: 380.00%
Pharyngeal tissue, Group 4, oral 100 mg/kg per day
  Percent increase in Fibrosis with respect to the control group: 275.00%
Pharyngeal tissue, Group 5, inhalation 0.05 mg/kg per day
  Percent increase in Fibrosis with respect to the control group: 480.30%
Pharyngeal tissue, Group 6, inhalation 0.1 mg/kg per day
  Percent increase in Fibrosis with respect to the control group: 258.34%
Pharyngeal tissue, Group 7, inhalation 0.2 mg/kg per day
  Percent increase in Fibrosis with respect to the control group: 152.23%
Pharyngeal tissue, Group 8, inhalation 0.4 mg/kg per day
  Percent increase in Fibrosis with respect to the control group: 128.32%
